Values of other authors, collected in patent US20090118503A1, “FAAH INHIBITORS” (priority 2007, published 2009).

Legend:
MCF-7 cells = conditions: up to 100 μM

| SMILES | cell viability (as assessed by trypan blue) (MCF-7 cells) | ability to inhibit prostaglandin synthesis (prostaglandin synthesis) |
| --- | --- | --- |
| CCCCC/C=C\C/C=C\C/C=C\C/C=C\CCCC(=O)NCCO [anandamide] | No significant decrease in cell viability | – |
| Cc1c(CC(=O)O)c2cc(O)ccc2n1C(=O)c1ccc(Cl)cc1 [desmethyl metabolite, (1-(4-chlorobenzoyl)-5-hydroxy-2-methyl-1H-indol-3-yl]acetic acid] | – | some ability to inhibit prostaglandin synthesis |
